Test results published in US20150210729A1, “MACROLIDE DERIVATIVES, PREPARATION THEREOF AND THERAPEUTIC USE THEREOF” (priority 2012, published 2015).
Converted amounts (≈) assume the structure as drawn. Like-named read-outs stand apart in the source and are kept apart here.

Columns and labels:
[1] = system: Mycobacterium tuberculosis H37Rv; assay: Alamar blue (MABA) test, MIC on Mycobacterium tuberculosis H37Rv; format: cell-based; settings: minimum inhibitory concentration, Alamar blue, strain H37Rv, read-out: MIC (μM) MTb H37Rv
[2] = system: Streptococcus pneumoniae; assay: ATP bioluminescence test, inhibition of bacterial growth of Streptococcus pneumoniae (IC80); format: cell-based; settings: read-out: IC80 (μM) S. pneumoniae
Experimental: Measurement of the Inhibitory Activity (IC80) of the Compounds According to the Invention Towards Streptococcus pneumoniae
The test used is a bioluminescence test, the aim of which is to measure the inhibition of bacterial growth of Streptococcus pneumoniae by quantification of the amount of adenosine triphosphate (ATP). Specifically, ATP is a major and mandatory energy intermediate of very many reactions of cell metabolism which characterizes live media.
ATP quantification is performed at the end of the test by using an enzyme, luciferase, which, in the presence of ATP and of a specific substrate, luciferin, produces quantifiable light.
Thus, in the presence of luciferin and luciferase at […] concentrations, the value obtained in relative light units (RLU) will make it possible, by means of a calibration, to estimate the amount of ATP and thus deduce the number of live bacteria at the end of the incubation period.
Thus, the more the RLU value obtained at the end of the test tends towards zero, the more the product inhibits the total growth of bacteria.
The results (Table 3) are expressed in IC80.

[3] = 80% inhibition of bacterial growth, ATP/luciferase readout

| Compound | MIC [1] [µM] | IC80 [2, 3] [µM] | IC80 [2] [µM] |
| --- | --- | --- | --- |
| CON=C1C[C@@H](C)O[C@@H](O[C@@H]2[C@@H](C)[C@H](O[C@H]3C[C@H](C)N(C)C[C@H](C)O3)[C@@H](C)C(=O)O[C@H](C(C)CO[C@@H]3O[C@H](C)[C@@H](O)[C@@H](OC)[C@H]3OC)[C@H](C)[C@@H](OC(=O)CC(C)C)[C@@H](C)C(=O)[C@@](C)(OC(=O)NCCc3ccncc3)C[C@@H]2C)[C@@H]1O (stereo partly drawn) [Compound 2, (2R,3S,4R,5R,7S,9S,10S,11R,12S,13R)-2-(1-{[(2R,3R,4R,5R,6R)-5-hydroxy-3,4-dimethoxy-6-methyltetrahydro-2H-pyran-2-yl]oxy}propan-2-yl)-10-{[(2S,3R,6R)-3-hydroxy-4-(methoxyimino)-6-methyltetrahydro-2H-pyran-2-yl]oxy}-3,5,7,9,11,13-hexamethyl-6,14-dioxo-7-({[2-(pyridin-4-yl)ethyl]carbamoyl}oxy)-12-{[(2S,5S,7R)-2,4,5-trimethyl-1,4-oxazepan-7-yl]oxy}oxacyclotetradecan-4-yl 3-methylbutanoate] | 1.25 (≈ 1.42 µg/mL) | 0.28 |  |
| CON=C1C[C@@H](C)O[C@@H](O[C@@H]2[C@@H](C)[C@H](O[C@H]3C[C@H](C)N(CCc4ccncc4)C[C@H](C)O3)[C@@H](C)C(=O)OC([C@@H](C)CO[C@@H]3O[C@H](C)[C@@H](O)[C@@H](OC)[C@H]3OC)[C@H](C)[C@@H](OC(=O)CC(C)C)[C@@H](C)C(=O)[C@@](C)(OC(=O)NCc3ccccc3)C[C@@H]2C)[C@@H]1O (stereo partly shown) [Compound 24] | 0.48 (≈ 0.582 µg/mL) | 0.88 |  |
| CON=C1C[C@@H](C)O[C@@H](O[C@@H]2[C@@H](C)[C@H](O[C@H]3C[C@@H](C)NC[C@H](C)O3)[C@@H](C)C(=O)O[C@H](C(C)CO[C@@H]3O[C@H](C)[C@@H](O)[C@@H](OC)[C@H]3OC)[C@H](C)[C@@H](OC(=O)CC(C)C)[C@@H](C)C(=O)[C@@](C)(OC(=O)NCc3ccccc3)C[C@@H]2C)[C@@H]1O (single isomer, unassigned) [Compound 8-a] | 0.56 (≈ 0.621 µg/mL) | 1.84 |  |
| CON=C1C[C@@H](C)O[C@@H](O[C@@H]2[C@@H](C)[C@H](O[C@H]3C[C@@H](C)N(C)C[C@H](C)O3)[C@@H](C)C(=O)OC([C@@H](C)CO[C@@H]3O[C@H](C)[C@@H](O)[C@@H](OC)[C@H]3OC)[C@H](C)[C@@H](OC(=O)CC(C)C)[C@@H](C)C(=O)[C@@](C)(OC(=O)NCCNc3ccnc4cc(Cl)ccc34)C[C@@H]2C)[C@@H]1O (stereo partly shown) [Compound 26] | 0.78 (≈ 0.965 µg/mL) | 0.69 |  |
| CON=C1C[C@@H](C)O[C@@H](O[C@@H]2[C@@H](C)[C@H](O[C@H]3C[C@H](C)N(C)C[C@H](C)O3)[C@@H](C)C(=O)O[C@H]([C@@H](C)CO[C@@H]3O[C@H](C)[C@@H](O)[C@@H](OC)[C@H]3OC)[C@H](C)[C@@H](OC(=O)CC(C)C)[C@@H](C)C(=O)[C@@](C)(OC(=O)NC(C)(C)CNC(=O)c3cnc(O)cn3)C[C@@H]2C)[C@@H]1O [Compound 14] | 0.67 (≈ 0.821 µg/mL) | 2.27 |  |
| CN[C@H](CC(C)C)C(=O)N[C@H]1C(=O)N[C@@H](CC(N)=O)C(=O)N[C@H]2C(=O)N[C@H]3C(=O)N[C@H](C(=O)N[C@H](C(=O)O)c4cc(O)cc(O)c4-c4cc3ccc4O)[C@H](O)c3ccc(c(Cl)c3)Oc3cc2cc(c3O[C@@H]2O[C@H](CO)[C@@H](O)[C@H](O)[C@H]2O[C@H]2C[C@](C)(N)[C@H](O)[C@H](C)O2)Oc2ccc(cc2Cl)[C@H]1O [vancomycin, reference compound] |  |  | 0.14 |
| CON=C1C[C@@H](C)O[C@@H](O[C@@H]2[C@@H](C)[C@H](O[C@H]3CC(C)N(CCF)C[C@H](C)O3)[C@@H](C)C(=O)O[C@H](C(C)CO[C@@H]3O[C@H](C)[C@@H](O)[C@@H](OC)[C@H]3OC)[C@H](C)[C@@H](OC(=O)CC(C)C)[C@@H](C)C(=O)[C@@](C)(OC(=O)NCc3ccccc3)C[C@@H]2C)[C@@H]1O (stereo partly drawn) [Compound 6, (2R,3S,4R,5R,7S,9S,10S,11R,12S,13R)-7-[(benzylcarbamoyl)oxy]-12-{[(2S,7R)-4-(2-fluoroethyl)-2,5-dimethyl-1,4-oxazepan-7-yl]oxy}-2-(1-{[(2R,3R,4R,5R,6R)-5-hydroxy-3,4-dimethoxy-6-methyltetrahydro-2H-pyran-2-yl]oxy}propan-2-yl)-10-{[(2S,3R,6R)-3-hydroxy-4-(methoxyimino)-6-methyltetrahydro-2H-pyran-2-yl]oxy}-3,5,7,9,11,13-hexamethyl-6,14-dioxooxacyclotetradecan-4-yl 3-methylbutanoate] | 0.91 (≈ 1.05 µg/mL) |  |  |
| CON=C1C[C@@H](C)O[C@@H](O[C@@H]2[C@@H](C)[C@H](O[C@H]3CC(C)N(C)C[C@H](C)O3)[C@@H](C)C(=O)O[C@H](C(C)CO[C@@H]3O[C@H](C)[C@@H](O)[C@@H](OC)[C@H]3OC)[C@H](C)[C@@H](OC(=O)CC(C)C)[C@@H](C)C(=O)[C@@](C)(OC(=O)NC(C)(C)CNS(=O)(=O)c3cn[nH]c3[N+](=O)[O-])C[C@@H]2C)[C@@H]1O (stereo partly shown) [Compound 4] | 0.21 (≈ 0.268 µg/mL) |  |  |
| CON=C1C[C@@H](C)O[C@@H](O[C@@H]2[C@@H](C)[C@H](O[C@H]3CC(C)N(C4CC4)C[C@H](C)O3)[C@@H](C)C(=O)OC([C@@H](C)CO[C@@H]3O[C@H](C)[C@@H](O)[C@@H](OC)[C@H]3OC)[C@H](C)[C@@H](OC(=O)CC(C)C)[C@@H](C)C(=O)[C@@](C)(OC(=O)NCc3ccccc3)C[C@@H]2C)[C@@H]1O (stereo partly shown) [Compound 35] | 0.36 (≈ 0.413 µg/mL) | 1.81 |  |
| CON=C1C[C@@H](C)O[C@@H](O[C@@H]2[C@@H](C)[C@H](O[C@H]3C[C@H](C)N(C)C[C@H](C)O3)[C@@H](C)C(=O)O[C@H](C(C)CO[C@@H]3O[C@H](C)[C@@H](O)[C@@H](OC)[C@H]3OC)[C@H](C)[C@@H](OC(=O)CC(C)C)[C@@H](C)C(=O)[C@@](C)(OC(=O)NC(C)(C)CNS(=O)(=O)c3ccccc3[N+](=O)[O-])C[C@@H]2C)[C@@H]1O (single isomer, unassigned) [Compound 5-b] | 0.53 (≈ 0.683 µg/mL) |  |  |
| CON=C1C[C@@H](C)O[C@@H](O[C@@H]2[C@@H](C)[C@H](O[C@H]3C[C@H](C)N(C)C[C@H](C)O3)[C@@H](C)C(=O)O[C@H](C(C)CO[C@@H]3O[C@H](C)[C@@H](O)[C@@H](OC)[C@H]3OC)[C@H](C)[C@@H](OC(=O)CC(C)C)[C@@H](C)C(=O)[C@@](C)(OC(=O)NCc3ccccc3)C[C@@H]2C)[C@@H]1O (single isomer, unassigned) [Compound 7-b] | 0.52 (≈ 0.584 µg/mL) |  |  |
| CON=C1C[C@@H](C)O[C@@H](O[C@@H]2[C@@H](C)[C@H](O[C@H]3C[C@H](C)N(Cc4ccccc4)C[C@H](C)O3)[C@@H](C)C(=O)OC([C@@H](C)CO[C@@H]3O[C@H](C)[C@@H](O)[C@@H](OC)[C@H]3OC)[C@H](C)[C@@H](OC(=O)CC(C)C)[C@@H](C)C(=O)[C@@](C)(OC(=O)NCCNC(=O)c3cnc(O)cn3)C[C@@H]2C)[C@@H]1O (stereo partly shown) [Compound 33] | 0.35 (≈ 0.446 µg/mL) | 1.34 |  |
